Test results reported in US20090117192A1, “COMPOSITION FOR TRANSDERMAL ABSORPTION AND FORMULATION COMPRISING A POLYMERIC MATRIX FORMED THEREFROM” (priority 2007, published 2009).
Like-named read-outs stand apart in the source and are kept apart here.

Assay: Meloxicam solubility enhancement test of sodium methoxide (saturation, HPLC)
Description: Meloxicam was mixed with an equivalent amount of sodium methoxide, and the mixture was dissolved to the saturation point in distilled water, methanol, ethylacetate, tetrahydrofuran or N-methylpyrrolidone. The resulting solution was subjected to high performance liquid chromatography to measure the meloxicam solubility.
Only Meloxicam without using sodium methoxide was dissolved to the saturation point in distilled water, methanol, ethylacetate, tetrahydrofuran or N-methylpyrrolidone, and then the resulting solution was subjected to high performance liquid chromatography to measure the meloxica solubility.

SMILES: Cc1cnc(NC(=O)C2=C(O)c3ccccc3S(=O)(=O)N2C)s1 [Comparative Example 3, Meloxicam]
- Meloxicam solubility (saturation, HPLC): 1280 µg/mL

SMILES: Cc1cnc(NC(=O)C2=C(O)c3ccccc3S(=O)(=O)N2C)s1 [Comparative Example 4, Meloxicam]
- Meloxicam solubility: 21910 µg/mL

SMILES: Cc1cnc(NC(=O)C2=C(O)c3ccccc3S(=O)(=O)N2C)s1 [Comparative Example 1, Meloxicam]
- Meloxicam solubility: 60 µg/mL

SMILES: Cc1cnc(NC(=O)C2=C(O)c3ccccc3S(=O)(=O)N2C)s1 [Comparative Example 2, Meloxicam]
- Meloxicam solubility: 430 µg/mL

SMILES: Cc1cnc(NC(=O)C2=C(O)c3ccccc3S(=O)(=O)N2C)s1 [Comparative Example 5, Meloxicam]
- Meloxicam solubility: 92700 µg/mL
